For data set [1], the system named is FaDu head and neck carcinoma xenografts. Nature of the data set: FaDu head and neck carcinoma xenografts in SCID mice. The data set is classed as in vivo. The method, then:
In vitro proteasome activity assays were performed in black 96-well microtitier plates using human 20S proteasome (Boston Biochem) in reaction buffer (25 mM Hepes, 0.5 mM EDTA, 0.03% SDS) with Suc-LLVY-AMC, Z-LLE-AMC or Boc-LRRAMC used as substrates for proteasome activity. De-ubiquitinase activity assays were performed with human 19S RP (Boston Biochem) with ubiquitin-AMC as substrate. For FaDu xenograft studies a 100-μl-cell suspension containing 1×10^6 cells was injected subcutaneously into the flank of SCID. Upon tumor take mice were randomized into control or treatment groups and administered with 5 mg kg^−1 b-AP15 or vehicle. In vivo levels of apoptosis and cell death were determined from the detection of caspase cleaved and total levels of cytokeratin-18 in plasma using M30 Apoptosense® and M65 ELISA®s assays (Peviva). […]
Animal experiments were conducted in full accordance with Swedish governmental statutory regulations on animal welfare under permission from local ethical committees. […] All mice were monitored and weighed daily. […] After injection, tumor growth was measured daily with calipers and the tumor volume calculated by the formula L×W^2×0.44. […] Nineteen days after malignant cell injection all of the mice were killed and histopathological manifestations of liver, ovary (target organs for this model of tumor) were evaluated and compared between groups. […]

In data set [2] the test system is HTC-116, hTERT-RPE1 and PBMC. Nature of the data set: Cytotoxic activity, FMCA method. Particulars: 72 h. The data set is classed as cell-based. Here is the method:
For the FMCA assay cells were seeded in the drug-prepared 384-well plates using the pipetting robot Precision 2000 (Bio-Tek Instruments Inc., Winooski, Vt.). The plates were incubated for 72 h and then transferred to an integrated HTS SAIGAN Core System consisting of an ORCA robot (Beckman Coulter) with CO2 incubator (Cytomat 2C, Kendro, Sollentuna, Sweden), dispenser module (Multidrop 384, Titertek, Huntsville, Ala.), washer module (ELx 405, Bio-Tek Instruments Inc), delidding station, plate hotels, barcode reader (Beckman Coulter), liquid handler (Biomek 2000, Beckman Coulter) and a multipurpose reader (FLUOstar Optima, BMG Labtech GmbH, Offenburg, Germany) for automated FMCA. Survival index (SI) is defined as the fluorescence of test wells in percentage of controls with blank values subtracted.
HCT-116 cells were treated with increasing concentrations of b-AP15 for 24 h and the levels of apoptosis were determined by measuring the levels of caspase cleaved cytokeratin-18 (CK18) by ELISA assay (FIG. 6a). HCT-116 cells were treated with increasing concentrations of b-AP15 for 48 h). Cell viability was determined by acid-phosphatase activity assay. […] IC50 was determined from log concentration/effect curves in Graph Pad Prism (GraphPad Software Inc. CA, USA) using non-linear regression analysis (four parameter model with variable Hill slope) (FIGS. 6e, 6f). […]

As to `C=CC(=O)N1C/C(=C\c2ccc([N+](=O)[O-])cc2)C(=O)/C(=C/c2ccc([N+](=O)[O-])cc2)C1` [b-AP15, (3E,5E)-3,5-bis[(4-nitrophenyl)methylidene]-1-(prop-2-enoyl)piperidin-4-one], the “treated/control tumor volume, T/C” value in data set [1] (5 mg/kg s.c. daily for 10 days, p=<0.001) is reported as 0.4. Moreover, the “difference in weight at the start and the endpoint between control and treated animals” value in data set [1] (FaDu xenograft) is recorded as −1.3%. In data set [2], the “cytotoxic activity, tumor versus normal cell types” value was “more toxic to the colon carcinoma cell line HTC-116 than to immortalized retinal pigment epithelial cells (hTERT-RPE1) and peripheral blood mononuclear cells (PBMC)”.

(Values after patent publication US20130079370A1, “Method for the Inhibition of Deubiquitinating Activity” (priority 2011, published 2013).)
